How the values were obtained:
[1] = molecular target: T1, Muscarinic acetylcholine receptor M1 (Homo sapiens, UniProt P11229)
T1 sequence (P11229 whole entry): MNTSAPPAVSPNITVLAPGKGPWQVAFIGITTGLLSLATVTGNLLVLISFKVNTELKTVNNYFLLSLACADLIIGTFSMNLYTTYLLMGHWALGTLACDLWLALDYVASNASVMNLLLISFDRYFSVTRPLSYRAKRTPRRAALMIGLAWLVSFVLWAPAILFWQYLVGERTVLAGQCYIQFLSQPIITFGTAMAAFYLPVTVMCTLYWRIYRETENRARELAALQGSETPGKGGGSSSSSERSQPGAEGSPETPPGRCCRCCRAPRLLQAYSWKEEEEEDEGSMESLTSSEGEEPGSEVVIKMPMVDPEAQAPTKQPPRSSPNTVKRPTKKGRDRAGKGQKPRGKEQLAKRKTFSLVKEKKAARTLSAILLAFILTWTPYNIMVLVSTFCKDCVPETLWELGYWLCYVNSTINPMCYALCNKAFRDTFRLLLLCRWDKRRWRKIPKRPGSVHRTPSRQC

[2] = molecular target: 5-hydroxytryptamine receptor 2A (Homo sapiens, UniProt P28223)
[3] = molecular target: T2, 5-hydroxytryptamine receptor 1A (Homo sapiens, UniProt P08908)
T2 sequence (P08908 whole entry): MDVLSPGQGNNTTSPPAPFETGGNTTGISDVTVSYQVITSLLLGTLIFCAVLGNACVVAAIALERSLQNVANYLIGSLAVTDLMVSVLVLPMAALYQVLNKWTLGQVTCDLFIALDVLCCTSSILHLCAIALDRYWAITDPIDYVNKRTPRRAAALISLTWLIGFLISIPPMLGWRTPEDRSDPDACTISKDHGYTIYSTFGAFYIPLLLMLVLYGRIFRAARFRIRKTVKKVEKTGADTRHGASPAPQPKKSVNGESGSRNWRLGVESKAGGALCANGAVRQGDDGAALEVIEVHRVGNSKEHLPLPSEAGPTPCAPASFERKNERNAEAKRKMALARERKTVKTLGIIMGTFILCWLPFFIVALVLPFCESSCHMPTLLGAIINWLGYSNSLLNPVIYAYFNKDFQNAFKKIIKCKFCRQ

Androgen receptor [4] = molecular target: T3, Androgen receptor (Rattus norvegicus, UniProt P15207)
T3 sequence (P15207 whole entry): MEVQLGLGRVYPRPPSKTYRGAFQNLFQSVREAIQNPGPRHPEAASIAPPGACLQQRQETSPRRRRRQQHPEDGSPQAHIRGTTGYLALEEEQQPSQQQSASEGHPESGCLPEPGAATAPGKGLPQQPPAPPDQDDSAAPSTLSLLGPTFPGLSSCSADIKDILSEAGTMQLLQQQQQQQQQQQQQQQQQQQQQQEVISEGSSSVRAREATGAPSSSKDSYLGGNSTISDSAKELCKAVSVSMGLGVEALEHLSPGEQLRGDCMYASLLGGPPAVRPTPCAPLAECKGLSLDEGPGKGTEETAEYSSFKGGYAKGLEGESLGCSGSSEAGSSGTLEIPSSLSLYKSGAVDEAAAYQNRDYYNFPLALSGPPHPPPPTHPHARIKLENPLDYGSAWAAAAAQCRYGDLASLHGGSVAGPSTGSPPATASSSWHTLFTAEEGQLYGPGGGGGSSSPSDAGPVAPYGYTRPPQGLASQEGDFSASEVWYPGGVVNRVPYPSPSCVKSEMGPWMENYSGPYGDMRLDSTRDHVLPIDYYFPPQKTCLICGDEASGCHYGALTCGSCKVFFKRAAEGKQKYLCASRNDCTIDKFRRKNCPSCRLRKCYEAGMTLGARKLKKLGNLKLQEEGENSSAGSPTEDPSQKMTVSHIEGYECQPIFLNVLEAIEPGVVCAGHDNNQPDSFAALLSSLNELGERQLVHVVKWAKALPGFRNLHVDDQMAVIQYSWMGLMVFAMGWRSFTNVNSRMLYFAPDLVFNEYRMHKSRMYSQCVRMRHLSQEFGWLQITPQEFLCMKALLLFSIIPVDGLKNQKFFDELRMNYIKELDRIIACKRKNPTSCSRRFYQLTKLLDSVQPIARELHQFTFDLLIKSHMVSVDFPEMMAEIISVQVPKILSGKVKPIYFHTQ

[5] = molecular target: Voltage-dependent N-type calcium channel subunit alpha-1B (Rattus norvegicus, UniProt Q02294); format: functional
Voltage-dependent N-type calcium channel subunit alpha-1B, sequence (Q02294 whole entry): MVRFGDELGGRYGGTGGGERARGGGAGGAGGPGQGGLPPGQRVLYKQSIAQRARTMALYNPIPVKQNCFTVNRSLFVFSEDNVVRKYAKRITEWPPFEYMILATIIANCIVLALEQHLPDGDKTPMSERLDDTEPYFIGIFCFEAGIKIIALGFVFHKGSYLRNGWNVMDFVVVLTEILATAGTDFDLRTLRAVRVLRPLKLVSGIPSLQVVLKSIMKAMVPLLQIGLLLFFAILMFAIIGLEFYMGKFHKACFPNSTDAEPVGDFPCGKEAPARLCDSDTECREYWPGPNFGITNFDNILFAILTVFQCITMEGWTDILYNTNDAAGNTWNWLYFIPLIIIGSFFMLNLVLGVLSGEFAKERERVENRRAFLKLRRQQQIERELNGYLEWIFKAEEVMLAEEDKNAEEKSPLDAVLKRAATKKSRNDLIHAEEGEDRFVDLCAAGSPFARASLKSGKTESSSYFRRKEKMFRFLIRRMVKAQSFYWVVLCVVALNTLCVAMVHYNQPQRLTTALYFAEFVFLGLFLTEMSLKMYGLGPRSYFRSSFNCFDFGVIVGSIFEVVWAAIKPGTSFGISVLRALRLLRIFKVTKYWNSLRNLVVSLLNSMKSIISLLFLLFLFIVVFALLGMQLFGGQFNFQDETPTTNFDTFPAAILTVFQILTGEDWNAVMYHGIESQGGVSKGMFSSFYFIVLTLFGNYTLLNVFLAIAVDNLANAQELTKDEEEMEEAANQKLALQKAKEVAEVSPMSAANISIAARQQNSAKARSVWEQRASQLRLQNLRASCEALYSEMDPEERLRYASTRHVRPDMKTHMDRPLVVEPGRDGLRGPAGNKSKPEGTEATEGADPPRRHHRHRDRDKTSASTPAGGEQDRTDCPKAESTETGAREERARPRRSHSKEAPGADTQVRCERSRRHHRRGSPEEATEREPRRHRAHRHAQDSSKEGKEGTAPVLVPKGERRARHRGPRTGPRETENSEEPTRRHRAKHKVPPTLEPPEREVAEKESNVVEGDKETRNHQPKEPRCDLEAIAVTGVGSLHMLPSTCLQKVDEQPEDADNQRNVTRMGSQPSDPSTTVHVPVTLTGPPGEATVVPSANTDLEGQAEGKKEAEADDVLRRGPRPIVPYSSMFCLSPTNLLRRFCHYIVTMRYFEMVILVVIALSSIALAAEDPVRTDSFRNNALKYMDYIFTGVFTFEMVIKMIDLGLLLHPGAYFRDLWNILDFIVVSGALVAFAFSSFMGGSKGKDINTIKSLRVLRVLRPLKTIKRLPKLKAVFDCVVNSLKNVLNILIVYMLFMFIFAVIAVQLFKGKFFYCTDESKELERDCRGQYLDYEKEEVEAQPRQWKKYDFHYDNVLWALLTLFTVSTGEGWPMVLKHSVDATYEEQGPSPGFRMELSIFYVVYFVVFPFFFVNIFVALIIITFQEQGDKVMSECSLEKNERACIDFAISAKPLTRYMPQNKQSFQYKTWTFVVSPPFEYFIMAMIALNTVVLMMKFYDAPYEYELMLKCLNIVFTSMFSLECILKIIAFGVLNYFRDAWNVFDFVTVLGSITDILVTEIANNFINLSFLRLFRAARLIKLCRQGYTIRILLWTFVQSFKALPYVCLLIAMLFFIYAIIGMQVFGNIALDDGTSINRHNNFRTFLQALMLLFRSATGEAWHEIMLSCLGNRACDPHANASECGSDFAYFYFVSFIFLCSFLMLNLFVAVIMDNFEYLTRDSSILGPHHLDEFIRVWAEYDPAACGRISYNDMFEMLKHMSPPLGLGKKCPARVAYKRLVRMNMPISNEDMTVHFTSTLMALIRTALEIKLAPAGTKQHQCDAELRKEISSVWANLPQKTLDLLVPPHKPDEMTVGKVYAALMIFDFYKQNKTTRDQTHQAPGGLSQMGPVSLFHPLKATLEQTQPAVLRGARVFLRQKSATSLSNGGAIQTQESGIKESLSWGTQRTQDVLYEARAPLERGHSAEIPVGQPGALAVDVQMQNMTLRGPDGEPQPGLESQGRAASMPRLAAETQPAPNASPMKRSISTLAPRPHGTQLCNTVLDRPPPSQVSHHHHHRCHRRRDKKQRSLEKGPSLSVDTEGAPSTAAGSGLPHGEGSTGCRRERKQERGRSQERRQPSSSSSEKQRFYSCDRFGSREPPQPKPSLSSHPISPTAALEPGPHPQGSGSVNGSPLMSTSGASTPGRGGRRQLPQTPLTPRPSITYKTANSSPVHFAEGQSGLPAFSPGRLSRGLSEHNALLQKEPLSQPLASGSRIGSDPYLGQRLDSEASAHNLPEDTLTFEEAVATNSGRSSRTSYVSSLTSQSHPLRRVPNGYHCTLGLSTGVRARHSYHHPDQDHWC

Estrogen receptor beta = Estrogen receptor beta (Homo sapiens, UniProt Q92731)
Estrogen receptor beta, sequence (Q92731 whole entry): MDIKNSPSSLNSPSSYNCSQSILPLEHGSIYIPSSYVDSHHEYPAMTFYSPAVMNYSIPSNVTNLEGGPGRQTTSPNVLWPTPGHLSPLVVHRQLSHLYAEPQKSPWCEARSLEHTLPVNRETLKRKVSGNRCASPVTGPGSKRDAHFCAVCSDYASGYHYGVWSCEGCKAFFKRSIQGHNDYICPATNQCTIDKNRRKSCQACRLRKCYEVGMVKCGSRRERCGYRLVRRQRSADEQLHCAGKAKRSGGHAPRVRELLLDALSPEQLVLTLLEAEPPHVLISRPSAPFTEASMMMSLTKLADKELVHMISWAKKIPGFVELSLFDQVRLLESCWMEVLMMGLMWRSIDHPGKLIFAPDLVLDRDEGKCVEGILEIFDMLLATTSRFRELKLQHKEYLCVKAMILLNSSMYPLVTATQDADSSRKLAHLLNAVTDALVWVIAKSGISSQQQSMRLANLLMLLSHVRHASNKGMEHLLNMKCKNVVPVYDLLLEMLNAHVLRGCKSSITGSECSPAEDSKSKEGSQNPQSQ

[6] = molecular target: T4, Corticotropin-releasing factor receptor 2 (Homo sapiens, UniProt Q13324)
T4 sequence (Q13324 whole entry): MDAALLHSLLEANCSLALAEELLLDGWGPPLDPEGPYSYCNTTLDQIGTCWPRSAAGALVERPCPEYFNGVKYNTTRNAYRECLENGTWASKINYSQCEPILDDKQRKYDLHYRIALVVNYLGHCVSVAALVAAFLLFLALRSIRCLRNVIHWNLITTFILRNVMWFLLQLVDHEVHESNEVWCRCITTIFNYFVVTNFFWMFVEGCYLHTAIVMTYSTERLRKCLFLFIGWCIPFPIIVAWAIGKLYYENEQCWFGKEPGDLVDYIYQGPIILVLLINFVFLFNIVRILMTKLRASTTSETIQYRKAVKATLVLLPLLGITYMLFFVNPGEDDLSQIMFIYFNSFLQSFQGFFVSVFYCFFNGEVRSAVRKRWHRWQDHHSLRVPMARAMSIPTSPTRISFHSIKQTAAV

Androgen receptor [7] = molecular target: T3, Androgen receptor; format: functional
Androgen receptor [8] = molecular target: T3, Androgen receptor; format: functional; remark: listed apart in the source
[9] = molecular target: T5, Gamma-aminobutyric acid receptor subunit alpha-1/alpha-2/beta-2/gamma-2 (Homo sapiens, UniProt P14867+P18507+P47869+P47870); format: functional, cell-based
T5 sequence (P14867 whole entry): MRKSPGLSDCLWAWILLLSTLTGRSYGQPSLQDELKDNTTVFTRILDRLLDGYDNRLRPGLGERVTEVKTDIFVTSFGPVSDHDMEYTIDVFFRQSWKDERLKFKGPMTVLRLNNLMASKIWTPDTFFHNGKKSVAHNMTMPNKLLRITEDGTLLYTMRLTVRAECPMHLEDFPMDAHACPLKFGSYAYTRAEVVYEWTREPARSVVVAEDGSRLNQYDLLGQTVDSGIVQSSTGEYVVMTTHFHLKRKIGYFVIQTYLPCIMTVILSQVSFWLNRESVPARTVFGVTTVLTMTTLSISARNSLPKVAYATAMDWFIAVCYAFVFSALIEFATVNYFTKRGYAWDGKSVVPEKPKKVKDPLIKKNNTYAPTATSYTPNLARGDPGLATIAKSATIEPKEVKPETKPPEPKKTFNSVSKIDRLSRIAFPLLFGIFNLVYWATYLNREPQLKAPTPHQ
T5 sequence (P47870 whole entry): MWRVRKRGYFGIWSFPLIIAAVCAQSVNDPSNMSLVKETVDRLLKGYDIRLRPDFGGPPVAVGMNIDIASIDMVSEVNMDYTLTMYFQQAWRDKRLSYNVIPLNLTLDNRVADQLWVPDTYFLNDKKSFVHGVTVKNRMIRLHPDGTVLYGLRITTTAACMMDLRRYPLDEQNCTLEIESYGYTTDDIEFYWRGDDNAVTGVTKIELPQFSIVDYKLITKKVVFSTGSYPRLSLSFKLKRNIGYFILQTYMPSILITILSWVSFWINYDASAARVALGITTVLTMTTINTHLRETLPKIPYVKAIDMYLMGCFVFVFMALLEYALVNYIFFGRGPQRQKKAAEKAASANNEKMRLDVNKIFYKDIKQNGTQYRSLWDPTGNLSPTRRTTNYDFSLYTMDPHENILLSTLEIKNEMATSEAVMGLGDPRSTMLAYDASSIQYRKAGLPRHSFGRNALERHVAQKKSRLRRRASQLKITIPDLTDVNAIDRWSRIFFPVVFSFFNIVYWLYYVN
T5 sequence (P18507 whole entry): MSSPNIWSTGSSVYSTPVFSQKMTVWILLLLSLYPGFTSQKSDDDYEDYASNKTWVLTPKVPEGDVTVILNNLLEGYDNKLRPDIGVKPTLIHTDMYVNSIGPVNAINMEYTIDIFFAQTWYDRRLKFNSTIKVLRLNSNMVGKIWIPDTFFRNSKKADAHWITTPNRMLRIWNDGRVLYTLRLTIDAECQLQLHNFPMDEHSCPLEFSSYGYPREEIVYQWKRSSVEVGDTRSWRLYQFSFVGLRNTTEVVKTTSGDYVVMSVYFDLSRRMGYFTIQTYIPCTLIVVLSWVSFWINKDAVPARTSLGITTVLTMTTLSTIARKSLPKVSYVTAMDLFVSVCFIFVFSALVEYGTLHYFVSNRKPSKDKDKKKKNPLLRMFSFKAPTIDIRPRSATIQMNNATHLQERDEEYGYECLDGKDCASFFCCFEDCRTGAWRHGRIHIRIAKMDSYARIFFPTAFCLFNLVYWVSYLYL
T5 sequence (P47869 whole entry): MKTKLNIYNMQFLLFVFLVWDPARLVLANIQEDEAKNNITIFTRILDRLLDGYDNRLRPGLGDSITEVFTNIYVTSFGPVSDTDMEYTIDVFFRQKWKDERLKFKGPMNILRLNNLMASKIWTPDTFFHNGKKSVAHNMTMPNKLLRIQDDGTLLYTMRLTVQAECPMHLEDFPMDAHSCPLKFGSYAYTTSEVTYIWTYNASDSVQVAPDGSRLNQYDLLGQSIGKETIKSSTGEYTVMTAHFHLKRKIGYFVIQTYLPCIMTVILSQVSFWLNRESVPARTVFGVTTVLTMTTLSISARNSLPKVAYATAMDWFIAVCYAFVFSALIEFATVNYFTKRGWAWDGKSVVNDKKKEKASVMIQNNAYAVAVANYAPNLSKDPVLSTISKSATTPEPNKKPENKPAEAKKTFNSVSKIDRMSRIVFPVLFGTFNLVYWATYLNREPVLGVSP

[10] = molecular target: T5, Gamma-aminobutyric acid receptor subunit alpha-1/alpha-2/beta-2/gamma-2; format: functional, cell-based; remark: listed apart in the source
Note: assay procedure not described here.

CCCCCCCC(=O)N[C@H](CN1CCCC1)[C@H](O)c1ccc2c(c1)OCCO2
AC50 [1]: > 30 µM

C[C@]1(COc2ccc(N3CCC(Oc4ccc(OC(F)(F)F)cc4)CC3)cc2)Cn2cc([N+](=O)[O-])nc2O1
AC50 [2]: > 10 µM | AC50 [3]: > 10 µM | AC50 (Androgen receptor [4]): > 30 µM | AC50 [5]: > 10 µM | AC50 (Estrogen receptor beta): > 30 µM | AC50 [6]: > 30 µM

C[C@]12CC[C@H](O)CC1=CC[C@@H]1[C@@H]2CC[C@]2(C)C(c3cccnc3)=CC[C@@H]12 [ABIRATERONE]
AC50 [2]: > 10 µM | AC50 (Androgen receptor [4]): > 30 µM

CC(=O)OCC[N+](C)(C)C [ACETYLCHOLINE]
AC50 [2]: > 10 µM | AC50 [3]: > 10 µM | AC50 [5]: > 10 µM | AC50 (Estrogen receptor beta): > 30 µM | AC50 [6]: > 30 µM

O=C(Nc1nc(-c2cc(Cl)cs2)c(N2CCN(C3CCCCC3)CC2)s1)c1cnc(N2CCC(C(=O)O)CC2)c(Cl)c1 [AVATROMBOPAG]
AC50 [2]: > 10 µM | AC50 [3]: > 10 µM | AC50 [1]: > 30 µM | AC50 [5]: > 10 µM

CN(C)C(=O)Oc1cc(OC(=O)N(C)C)cc(C(O)CNC(C)(C)C)c1 (centres undefined) [BAMBUTEROL]
AC50 (Androgen receptor [7]): > 30 µM | AC50 (Androgen receptor [8]): > 30 µM

C[C@H]1C[C@H]2[C@@H]3CCC4=CC(=O)C=C[C@]4(C)[C@@]3(Cl)[C@@H](O)C[C@]2(C)[C@@]1(O)C(=O)CO [BECLOMETHASONE]
AC50 [3]: > 10 µM | AC50 [5]: > 10 µM | AC50 [6]: > 30 µM

CO[C@@]1(NC(=O)CSCC#N)C(=O)N2C(C(=O)O)=C(CSc3nnnn3C)CS[C@@H]21 [CEFMETAZOLE]
AC50 [9]: > 30 µM

CO/N=C(\C(=O)N[C@@H]1C(=O)N2C(C(=O)[O-])=C(C[n+]3cccc4c3CCC4)CS[C@H]12)c1csc(N)n1 [CEFPIROME]
AC50 [10]: > 30 µM | AC50 [9]: > 30 µM

Oc1c(I)cc(Cl)c2cccnc12 [CLIOQUINOL]
AC50 [10]: > 30 µM | AC50 [9]: > 30 µM | AC50 [1]: > 30 µM

COc1ccc2c(c1)[C@]13CCCC[C@@H]1[C@H](C2)N(C)CC3 [DEXTROMETHORPHAN]
AC50 [3]: > 10 µM | AC50 [5]: > 10 µM | AC50 (Estrogen receptor beta): > 30 µM | AC50 [6]: > 30 µM

O=c1oc2ccccc2c(O)c1Cc1c(O)c2ccccc2oc1=O [DICUMAROL]
AC50 (Androgen receptor [4]): > 10 µM

CCn1cc(C(=O)O)c(=O)c2cc(F)c(N3CCNCC3)nc21 [ENOXACIN]
AC50 [3]: > 10 µM | AC50 [5]: > 10 µM | AC50 (Estrogen receptor beta): > 30 µM | AC50 [6]: > 30 µM

O=C(O)CSCC(=O)NC1CCSC1=O (centres undefined) [ERDOSTEINE]
AC50 (Androgen receptor [7]): > 30 µM | AC50 (Androgen receptor [8]): > 30 µM

CCC(=O)O[C@@H]1CC(=O)O[C@H](C)C/C=C/C=C/[C@H](OC(C)=O)[C@H](C)C[C@H](CC=O)[C@H](O[C@@H]2O[C@H](C)[C@@H](O[C@H]3C[C@@](C)(OC(C)=O)[C@@H](OC(=O)CC)[C@H](C)O3)[C@H](N(C)C)[C@H]2O)[C@H]1OC [MIOCAMYCIN]
AC50 [1]: > 30 µM

N=C(N)c1ccc2cc(OC(=O)c3ccc(N=C(N)N)cc3)ccc2c1 [NAFAMOSTAT]
AC50 (Androgen receptor [7]): 12 µM

C1CNCCN1 [PIPERAZINE]
AC50 [1]: > 30 µM

COCCCOc1ccnc(C[S+]([O-])c2nc3ccccc3[nH]2)c1C (centres undefined) [RABEPRAZOLE]
AC50 [3]: > 10 µM | AC50 [5]: > 10 µM | AC50 (Estrogen receptor beta): > 30 µM | AC50 [6]: > 30 µM

CC(C)=CCOc1ccc(/C=C/C(=O)c2ccc(OCC=C(C)C)cc2OCC(=O)O)cc1 [SOFALCONE]
AC50 (Androgen receptor [7]): > 30 µM | AC50 (Androgen receptor [8]): 6.1 µM

O=C(CCCN1CCC2(CC1)C(=O)NCN2c1ccccc1)c1ccc(F)cc1 [SPIPERONE]
AC50 [10]: > 30 µM | AC50 [9]: > 30 µM

CN(C)c1cc(NC(=O)CNC(C)(C)C)c(O)c2c1C[C@H]1C[C@H]3[C@H](N(C)C)C(O)=C(C(N)=O)C(=O)[C@@]3(O)C(O)=C1C2=O [TIGECYCLINE]
AC50 (Androgen receptor [4]): > 30 µM

OCCN1CCN(CC/C=C2/c3ccccc3Sc3ccc(Cl)cc32)CC1 [ZUCLOPENTHIXOL]
AC50 [2]: 0.0046 µM | AC50 (Androgen receptor [4]): > 10 µM
